Test results: patent US11702418B2, “SOS1 inhibitors” (priority 2019, dated 2023)
Structures can show the parent of a compound that is named as a salt. Where two headings read alike, the source gives them in different places.

Key:
[1] = target: recombinant human SOS1 polypeptide (amino acids 560-1049) (Homo sapiens (Human), UniProt Q07889); test: biochemical; assay type: binding; conditions: read-out: Ki, Inhibition of Labeled Tracer Binding to SOS1
pERK in MKN1 cells = test: cells; assay type: cell-based
[2] = HTRF displacement, Cy5 labelled tracer, Morrison equation for competitive binding
[3] = Homo sapiens, MKN-1, pERK inhibition, In-Cell Western, MKN1 or H358 cells (Table 24 does not say which), 0.5-1 hour incubation, read-out: IC50

recombinant human SOS1 polypeptide (amino acids 560-1049), sequence (Q07889 560-1049): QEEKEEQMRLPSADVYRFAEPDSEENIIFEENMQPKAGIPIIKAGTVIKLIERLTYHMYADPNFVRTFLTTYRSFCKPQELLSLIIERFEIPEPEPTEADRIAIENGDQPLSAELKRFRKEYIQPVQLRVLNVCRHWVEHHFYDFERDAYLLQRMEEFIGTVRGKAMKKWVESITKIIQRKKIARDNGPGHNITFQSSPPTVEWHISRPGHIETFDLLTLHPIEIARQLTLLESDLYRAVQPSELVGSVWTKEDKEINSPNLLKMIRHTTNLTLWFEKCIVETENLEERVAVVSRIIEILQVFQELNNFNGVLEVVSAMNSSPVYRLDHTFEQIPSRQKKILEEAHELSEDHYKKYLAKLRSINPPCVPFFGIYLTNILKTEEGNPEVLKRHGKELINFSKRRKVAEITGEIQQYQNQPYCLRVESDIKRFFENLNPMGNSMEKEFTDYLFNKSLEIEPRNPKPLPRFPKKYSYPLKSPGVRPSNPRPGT

SMILES | Ki [1, 2] | IC50 (pERK in MKN1 cells; [3]) | Ki [1] | IC50 (pERK in MKN1 cells; Homo sapiens, MKN-1) | IC50 (pERK in MKN1 cells; pERK inhibition, In-Cell Western, MKN1 or H358 cells (Table 24 does not say which), 0.5-1 hour incubation, read-out: IC50)
Cc1c([C@@H](C)Nc2nnc(C)c3ccc(N4CC[C@@H](N(C)C)C(F)(F)C4)cc23)cccc1C(F)(F)F [Example 21-5, 7-((R)-4-(dimethylamino)-3,3-difluoropiperidin-1-yl)-4-methyl-N—((R)-1-(2-methyl-3-(trifluoromethyl)phenyl)ethyl)phthalazin-1-amine] | 1.34 nM | 1110 nM | – | – | –
Cc1nnc(N[C@H](C)c2cc(N)cc(C(F)(F)F)c2)c2cc(O[C@H]3CCOC3)ccc12 [Example 15-1, N—((R)-1-(3-amino-5-(trifluoromethyl)phenyl)ethyl)-4-methyl-7-(((S)-tetrahydrofuran-3-yl)oxy)phthalazin-1-amine] | 3.37 nM | 28 nM | – | – | –
Cc1c([C@@H](C)Nc2nnc(C)c3ccc(N4CCN(C(=O)[C@H]5CCOC5)CC4)cc23)cccc1C(F)(F)F [Example 11-5, (4-(1-methyl-4-(((R)-1-(2-methyl-3-(trifluoromethyl)phenyl)ethyl)amino)phthalazin-6-yl)piperazin-1-yl)((S)-tetrahydrofuran-3-yl)methanone] | 0.01 nM | 12 nM | – | – | –
Cc1c(C#N)cccc1[C@@H](C)Nc1nnc(C)c2ccc(N3CC4(CCN(C)C4)C3)cc12 [Example 10-73, (R)-2-methyl-3-(1-((4-methyl-7-(6-methyl-2,6-diazaspiro[3.4]octan-2-yl)phthalazin-1-yl)amino)ethyl)benzonitrile formate salt] | – | – | 0.63 nM | 49 nM | –
Cc1c([C@@H](C)Nc2nnc(C)c3ccc(N4CCC5(CCCN5)CC4)cc23)cccc1C(F)(F)F [Example 10-35, (R)-4-methyl-N-(1-(2-methyl-3-(trifluoromethyl)phenyl)ethyl)-7-(1,8-diazaspiro[4.5]decan-8-yl)phthalazin-1-amine] | 0.31 nM | – | – | – | 1000 nM
Cc1c([C@@H](C)Nc2nnc(C)c3ccc(N4CCNC[C@H](F)C4)cc23)cccc1C(F)(F)F [Example 10-62, 7-((S)-6-fluoro-1,4-diazepan-1-yl)-4-methyl-N-((R)-1-(2-methyl-3-(trifluoromethyl)phenyl)ethyl)phthalazin-1-amine Hydrochloride salt] | – | – | 0.9 nM | 76 nM | –
Cc1c(C(F)F)cccc1[C@@H](C)Nc1nnc(C)c2cnc(N3CCN(c4cnn(C)c4)CC3)cc12 [Example 12-59] | 0.47 nM | 19 nM | – | – | –
Cc1cn2c(n1)CN(c1ccc3cnnc(N[C@H](C)c4cccc(C(F)(F)F)c4C)c3c1)CC2 [Example 1-40, (R)-N-(1-(2-methyl-3-(trifluoromethyl)phenyl)ethyl)-7-(2-methyl-5,6-dihydroimidazo[1,2-a]pyrazin-7(8H)-yl)phthalazin-1-amine] | 0.27 nM | 171 nM | – | – | –
Cc1c([C@@H](C)Nc2nnc(C)c3ccc(N4CCNS(=O)(=O)CC4)cc23)cccc1C(F)(F)F [Example 10-64, (R)-5-(1-methyl-4-((1-(2-methyl-3-(trifluoromethyl)phenyl)ethyl)amino)phthalazin-6-yl)-1,2,5-thiadiazepane 1,1-dioxide] | 1.7 nM | 513 nM | – | – | –
Cc1c([C@@H](C)Nc2nnc(C)c3cnc(N4CC5CC(C4)O5)cc23)cccc1C(F)(F)F [Example 12-2, 7-(6-oxa-3-azabicyclo[3.1.1]heptan-3-yl)-4-methyl-N—((R)-1-(2-methyl-3-(trifluoromethyl)phenyl)ethyl)pyrido[3,4-d]pyridazin-1-amine] | 0.6 nM | 9 nM | – | – | –
Cc1c([C@@H](C)Nc2nncc3ccc(O[C@H]4C[C@H](N(C)C)C4)cc23)cccc1C(F)(F)F [Example 2-8, 7-((trans)-3-(dimethylamino)cyclobutoxy)-N-((R)-1-(2-methyl-3-(trifluoromethyl)phenyl)ethyl)phthalazin-1-amine] | 2.99 nM | 148 nM | – | – | –
Cc1c([C@@H](C)Nc2nnc(C)c3ccc(N4CCNC[C@@H](F)C4)cc23)cccc1C(F)(F)F [Example 10-63, 7-((R)-6-fluoro-1,4-diazepan-1-yl)-4-methyl-N-((R)-1-(2-methyl-3-(trifluoromethyl)phenyl)ethyl)phthalazin-1-amine Hydrochloride salt] | – | – | 0.54 nM | 50 nM | –
Cc1c([C@@H](C)Nc2nncc3ccc(N4CC(=O)N(C)CC4C)cc23)cccc1C(F)(F)F (stereo partly drawn) [Example 1-26, 1,5-dimethyl-4-(4-(((R)-1-(2-methyl-3-(trifluoromethyl)phenyl)ethyl)amino)phthalazin-6-yl)piperazin-2-one] | 1.16 nM | 57 nM | – | – | –
CNCc1ccccc1-c1ccc([C@@H](C)Nc2nnc(C)c3cnc(N4CCOCC4)cc23)s1 [Example 6-2, (R)-4-methyl-N-(1-(5-(2-((methylamino)methyl)phenyl)thiophen-2-yl)ethyl)-7-morpholinopyrido[3,4-d]pyridazin-1-amine] | 1.35 nM | 100 nM | – | – | –
Cc1nnc(N[C@H](C)c2cccc(C(F)(F)F)c2F)c2cc(N3CC(C)(N(C)C)C3)ccc12 [Example 10-78, (R)-7-(3-(dimethylamino)-3-methylazetidin-1-yl)-N-(1-(2-fluoro-3-(trifluoromethyl)phenyl)ethyl)-4-methylphthalazin-1-amine] | 1.16 nM | 114 nM | – | – | –
Cc1c(C#N)cccc1[C@@H](C)Nc1nnc(C)c2c(F)cc(N3CCN4COCC[C@@H]4C3)cc12 [Example 21-9, 3-((R)-1-((5-fluoro-7-((R)-hexahydro-2H,6H-pyrazino[1,2-c][1,3]oxazin-2-yl)-4-methylphthalazin-1-yl)amino)ethyl)-2-methylbenzonitrile] | 2.1 nM | 54 nM | – | – | –

SMILES | Ki [1, 2] | IC50 (pERK in MKN1 cells; [3]) | Ki [1] | IC50 (pERK in MKN1 cells; Homo sapiens, MKN-1) | IC50 (pERK in MKN1 cells; pERK inhibition, In-Cell Western, MKN1 or H358 cells (Table 24 does not say which), 0.5-1 hour incubation, read-out: IC50)
Cc1c([C@@H](C)Nc2nncc3ccc(N4CC5(CC(N(C)C)C5)C4)cc23)cccc1C(F)(F)F [Example 1-32, (R)-7-(6-(dimethylamino)-2-azaspiro[3.3]heptan-2-yl)-N-(1-(2-methyl-3-(trifluoromethyl)phenyl)ethyl)phthalazin-1-amine] | 0.42 nM | 101 nM | – | – | –
COc1c(C#N)cccc1[C@@H](C)Nc1nnc(C)c2ccc(N3CC(C)(O)C3)cc12 [Example 17-4, (R)-3-(1-((7-(3-hydroxy-3-methlazetidin-1-yl)-4-methylpyridazin-1-yl)amino)ethyl)-2-methoxybenzonitrile] | 14.4 nM | 116 nM | – | – | –
Cc1nnc(N[C@H](C)c2cc(N)c(F)c(C(F)(F)F)c2)c2cc(N3C[C@H]4C[C@@H]3CO4)ccc12 [Example 16-14, N-((R)-1-(3-amino-4-fluoro-5-(trifluoromethyl)phenyl)ethyl)-7-((1R,4R)-2-oxa-5-azabicyclo[2.2.1]heptan-5-yl)-4-methylphthalazin-1-amine] | 1.71 nM | 37 nM | – | – | –
Cc1c([C@@H](C)Nc2nnc(C)c3cnc(N4CCN5CCOC[C@@H]5C4)cc23)cccc1C(F)(F)F [Example 12-14] | 0.55 nM | 17 nM | – | – | –
Cc1nnc(N[C@H](C)c2cc(N)cc(C(F)(F)F)n2)c2cc(N3C[C@H]4CC[C@@H]3CN4C)ccc12 [Example 16-5, N-((R)-1-(4-amino-6-(trifluoromethyl)pyridin-2-yl)ethyl)-4-methyl-7-((1R, 4R)-5-methyl-2,5-diazabicyclo[2.2.2]octan-2-yl)phthalazin-1-amine] | 5.5 nM | 71 nM | – | – | –
Cc1nnc(N[C@H](C)c2cccc(C(F)F)c2F)c2cc(N3CC(C)(N(C)C)C3)ncc12 [Example 12-115] | 1.66 nM | 19 nM | – | – | –
Cc1c([C@@H](C)Nc2nnc(C)c3cnc(OC4CN(C)C4)cc23)cccc1C(F)(F)F [Example 12-12] | 21.6 nM | 249 nM | – | – | –
Cc1nnc(N[C@H](C)c2cccc(C(F)(F)C(C)(C)O)c2F)c2cc(N3CC4CC(C3)O4)ncc12 [Example 20-3, 1-(3-((1R)-1-((7-(6-oxa-3-azabicyclo[3.1.1]heptan-3-yl)-4-methylpyrido[3,4-d]pyridazin-1-yl)amino)ethyl)-2-fluorophenyl)-1,1-difluoro-2-methylpropan-2-ol] | 0.92 nM | 16 nM | – | – | –
Cc1nnc(N[C@H](C)c2cccc(C(F)(F)F)c2F)c2cc(N3CCOCC3)ccc12 [Example 10-77, (R)-N-(1-(2-fluoro-3-(trifluoromethyl)phenyl)ethyl)-4-methyl-7-morpholinophthalazin-1-amine] | 0.75 nM | 102 nM | – | – | –
Cc1c([C@@H](C)Nc2nnc(C)c3ccc(-n4cc5c(n4)CNC5)cc23)cccc1C(F)(F)F [Example 10-16, (R)-7-(5,6-dihydropyrrolo[3,4-c]pyrazol-2(4H)-yl)-4-methyl-N-(1-(2-methyl-3-(trifluoromethyl)phenyl)ethyl)phthalazin-1-amine] | 7.75 nM | 325 nM | – | – | –
Cc1c([C@@H](C)Nc2nnc(C)c3ccc(OC[C@@H]4CCCN4C)cc23)cccc1C(F)(F)F [Example 10-24, 4-methyl-N-((R)-1-(2-methyl-3-(trifluoromethyl)phenyl)ethyl)-7-(((S)-1-methylpyrrolidin-2-yl)methoxy)phthalazin-1-amine hydrochloride salt] | – | – | 1.34 nM | 69 nM | –
Cc1c(C#N)cccc1[C@@H](C)Nc1nnc(C)c2cnc(N3C[C@H]4CC[C@@H]3CN4CC(F)(F)F)cc12 [Example 12-76] | 1.06 nM | 56 nM | – | – | –
Cc1c(C#N)cccc1[C@@H](C)Nc1nnc(C)c2cnc(N3CC(C)(O)C3)cc12 [Example 12-30] | 2.63 nM | 54 nM | – | – | –
Cc1c([C@@H](C)Nc2nncc3ccc(OC4CCN5CCCC5C4)cc23)cccc1C(F)(F)F (stereo partly drawn) [Example 2-12, N-((R)-1-(2-methyl-3-(trifluoromethyl)phenyl)ethyl)-7-((octahydroindolizin-7-yl)oxy)phthalazin-1-amine] | 5.75 nM | 304 nM | – | – | –
Cc1c(C#N)cccc1[C@@H](C)Nc1nnc(C)c2cnc(N3CCN(c4cnn(C)c4)CC3)cc12 [Example 12-36] | 0.99 nM | 12 nM | – | – | –
